The results in this text go back to patent US20230382894A1, “CCR4 ANTAGONISTS” (CHEMOCENTRYX, INC., priority 2022, published 2023).

Where only a bound is given, the exact number is not on record here.

In general, IC50 refers to the point on the concentration scale where inhibition reaches its midpoint.

The test deals with T1, CCR4 (Homo sapiens, UniProt P51679).
T1 construct: CEM Cells Endogenous Express CCR4; endogenous in cells; host or cells: CEM cells
T1 sequence (P51679 1-360): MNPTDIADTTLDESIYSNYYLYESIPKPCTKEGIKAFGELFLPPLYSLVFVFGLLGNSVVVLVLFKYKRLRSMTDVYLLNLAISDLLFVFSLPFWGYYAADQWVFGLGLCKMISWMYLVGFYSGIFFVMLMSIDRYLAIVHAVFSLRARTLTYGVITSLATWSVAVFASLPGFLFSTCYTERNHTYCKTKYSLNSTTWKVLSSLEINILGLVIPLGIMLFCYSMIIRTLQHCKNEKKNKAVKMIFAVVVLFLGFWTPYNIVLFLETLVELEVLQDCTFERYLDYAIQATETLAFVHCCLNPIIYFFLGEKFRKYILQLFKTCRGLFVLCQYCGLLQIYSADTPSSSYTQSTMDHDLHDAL
The test can be described thus: CEM cell chemotaxis (migration) assay to CCL22 (MDC) in 100% Fetal Bovine Serum (FBS). The test is classed as cell-based. The following applies: CEM cells in 100% FBS with 1% HEPEs; recombinant human CCL22 0.1 nM; 37° C. 60 minutes. An excerpt: CEM Cells Endogenous Express CCR4
A chemotaxis assay can be used to determine the efficacy of potential receptor antagonists at blocking the migration mediated through chemokine receptors, such as CCR4. This assay is routinely performed using the ChemoTX® microchamber system with a 5 μm pore-sized polycarbonate membrane.
FBS: CEM Cells are collected by centrifugation at 400×g at room temperature, then suspended at 5 million/ml in 100% Fetal Bovine Serum (FBS) with 1% HEPEs. The compound being tested is serially diluted from a maximum final concentration of 10 μM (or an equivalent volume of its solvent (DMSO)) and is then added to the cell/buffer mixture. Separately, recombinant human CCL22 (MDC) at its EC50 concentration (0.1 nM) is placed in the lower wells of the ChemoTX® plate. The 5-μm (pore size) polycarbonate membrane was placed onto the plate, and 20 μL of the cell/compound mixture is transferred onto each well of the membrane. The plates are incubated at 37° C. for 60 minutes, after which the polycarbonate membranes are removed and 5 μl of the DNA-intercalating dye CyQUANT (Invitrogen, Carlsbad, CA) is added to the lower wells. The amount of fluorescence, corresponding to the number of migrated cells, is measured using a Spectrafluor Plus plate reader (TECAN, San Jose, CA).
On to `C[C@@H]1CC[C@H](C(=O)N2CCN(c3ncc(Cl)c(N[C@H](C)c4ccc(Cl)cc4Cl)n3)CC2)N1` [Example 1.247], for which the IC50 was less than 100 nM.

Take `C[C@@H](Nc1nc(N2CCN(C(=O)[C@@]3(C)CCCN3)CC2)ncc1Cl)c1ccc(Cl)cc1Cl` [Example 1.210]: the IC50 was less than 100 nM.

In the case of `C[C@@H](Nc1nc(N2CCC(C(=O)NC[C@H]3CCC(=O)N3)CC2)ncc1Cl)c1ccc(Cl)cc1Cl` [Example 1.235], the IC50 is greater than 1000 nM.

For `C[C@@H](Nc1nc(N2CC[C@H](NC(=O)[C@H]3COCCN3)[C@@H](O)C2)ncc1Cl)c1ccc(Cl)cc1Cl` [Example 1.125], the IC50 is 100 to 1000 nM.

On to `CC(C)N1CCCC(C2CCN(c3ncc(Cl)c(N[C@H](C)c4ccc(Cl)cc4Cl)n3)CC2)C1` (some centres unmarked) [Example 1.214], for which the IC50 is less than 100 nM.

Take `C[C@@H](Nc1nc(N2CCN(C(=O)CCN3CCOCC3)CC2)ncc1Cl)c1ccc(Cl)cc1Cl` [Example 1.196]: the IC50 was 100 to 1000 nM.

Regarding `C[C@@H](Nc1nc(N2CCN(C(=O)[C@H]3CCC(=O)N3)CC2)nc(C(F)(F)F)c1Cl)c1ccc(Cl)cc1Cl` [Example 1.261], the IC50 was less than 100 nM.

In the case of `C[C@@H](Nc1nc(N2CCN(C(=O)CCN3CCCC3)CC2)ncc1Cl)c1ccc(Cl)cc1Cl` [Example 1.185], the IC50 is less than 100 nM.

For the molecule `C[C@@H](Nc1nc(N2CC[C@H](NC(=O)[C@H]3CCN(C)C3)[C@@H](O)C2)ncc1Cl)c1ccc(Cl)cc1Cl` [Example 1.206], the IC50 is less than 100 nM.

For `COCc1cnc(N2CCN(C(=O)[C@H]3CCCN3)CC2)nc1N[C@H](C)c1ccc(Cl)cc1Cl` [Example 1.101], the IC50 is less than 100 nM.

For the molecule `C[C@@H](Nc1nc(N2CCN(C(=O)CN3CCCC3)CC2)ncc1Cl)c1ccc(Cl)cc1Cl` [Example 1.192], the IC50 is less than 100 nM.

As for `C[C@@H](Nc1nc(N2CCN(C(=O)C[C@@H]3CCCN3C)CC2)ncc1Cl)c1ccc(Cl)cc1Cl` [Example 1.169], the IC50 is less than 100 nM.

For `C[C@@H](Nc1nc(N2CCN(C(=O)[C@H]3CCCN3)CC2)ncc1F)c1ccc(Cl)cc1Cl` [Example 1.157], the IC50 was less than 100 nM.

In the case of `C[C@@H](Nc1nc(N2CCN(C(=O)[C@@]3(C)CCC(=O)N3)CC2)ncc1Cl)c1ccc(Cl)cc1Cl` [Example 1.244], the IC50 is greater than 1000 nM.

As to `C[C@@H](Nc1nc(N2CC[C@H](N(C)C(=O)[C@H]3CCCN3)[C@@H](O)C2)ncc1Cl)c1ccc(Cl)cc1Cl` [Example 1.194], the IC50 was in the range of 100 to 1000 nM.

Consider `C[C@@H](Nc1nc(C2CCN(C(=O)[C@H]3CCC(=O)N3)CC2)ncc1Cl)c1ccc(Cl)cc1Cl` [Example 1.160], for which the IC50 is greater than 1000 nM.

Turning to `C[C@@H](Nc1nc(N2CCN(C(=O)[C@H]3CCC(=O)N3)CC2)ncc1F)c1ccc(Cl)cc1F` [Example 1.086], the IC50 was less than 100 nM.

On to `C[C@@H](Nc1nc(N2CCC(O[C@H]3CCN(CCO)C3)CC2)ncc1Cl)c1ccc(Cl)cc1Cl` [Example 1.193], for which the IC50 was less than 100 nM.

For the molecule `C[C@@H](Nc1cc(C(F)(F)F)nc(N2CCN(C(=O)[C@H]3CCC(=O)N3)CC2)n1)c1ccc(Cl)cc1Cl` [Example 1.092], the IC50 lay in the range of 100 to 1000 nM.

For `C[C@@H](Nc1nc(N2CCN(C(=O)CCN3CCCC3=O)CC2)ncc1Cl)c1ccc(Cl)cc1Cl` [Example 1.191], the IC50 was 100 to 1000 nM.

Consider `C[C@@H](Nc1nc(N2CC[C@H](NC(=O)[C@H]3CCC(C)(C)N3)[C@@H](O)C2)ncc1Cl)c1ccc(Cl)cc1Cl` [Example 1.123], for which the IC50 is less than 100 nM.

As to `C[C@@H](Nc1nc(N2CCN(C(=O)[C@H]3CCC(=O)N3)CC2)ncc1Cl)c1cc(F)c(Cl)cc1Cl` [Example 1.202], the IC50 is less than 100 nM.

On to `CCOc1cnc(N2CCN(C(=O)CCN(C)C)CC2)nc1N[C@H](C)c1ccc(Cl)cc1Cl` [Example 1.183], for which the half-maximal inhibitory concentration (IC50) was less than 100 nM.

`C[C@@H](Nc1nc(N2CCN(C(=O)C3(N)COC3)CC2)ncc1Cl)c1ccc(Cl)cc1Cl` [Example 1.212]: the IC50 is greater than 1000 nM.

`C[C@@H](Nc1nc(N2CC[C@H](NC(=O)[C@H]3CCCN3)[C@H](O)C2)ncc1F)c1ccc(Cl)cc1Cl` [Example 1.090]: the IC50 was less than 100 nM.

As for `C[C@@H](Nc1nc(N2CC[C@H](NC(=O)[C@H]3CCCN3C)[C@@H](O)C2)ncc1Cl)c1ccc(Cl)cc1Cl` [Example 1.224], the IC50 was less than 100 nM.

In the case of `C[C@@H]1CN(c2ncc(Cl)c(N[C@H](C)c3ccc(Cl)cc3Cl)n2)CCN1C(=O)[C@H]1CN(C)C(=O)N1` [Example 1.104], the IC50 was less than 100 nM.

With `COC[C@@H](N)C(=O)N1CCN(c2ncc(Cl)c(N[C@H](C)c3ccc(Cl)cc3Cl)n2)CC1` [Example 1.215], the half-maximal inhibitory concentration (IC50) was in the range of 100 to 1000 nM.

Turning to `C[C@@H](Nc1nc(N2CCN(C(=O)c3cn(C)cn3)CC2)ncc1Cl)c1ccc(Cl)cc1Cl` [Example 1.217], the IC50 fell in the range of 100 to 1000 nM.

Turning to `C[C@@H](Nc1nc(N2CC[C@H](NC(=O)[C@H]3C[C@@H](O)CN3)[C@@H](O)C2)ncc1Cl)c1ccc(Cl)cc1Cl` [Example 1.216], the IC50 lay in the range of 100 to 1000 nM.

As to `C[C@@H](Nc1nc(N2CCN(C(=O)C3CNC(=O)CN3)CC2)ncc1Cl)c1ccc(Cl)cc1Cl` (some centres unmarked) [Example 1.209], the IC50 fell in the range of 100 to 1000 nM.

As for `C[C@@H](Nc1nc(N2CCN(C(=O)[C@H]3CNCC(=O)N3)CC2)ncc1Cl)c1ccc(Cl)cc1Cl` [Example 1.129], the IC50 is less than 100 nM.

As for `CO[C@H]1CN(c2ncc(Cl)c(N[C@H](C)c3ccc(Cl)cc3Cl)n2)CC[C@@H]1NC(=O)[C@H]1CCCN1` [Example 1.242], the IC50 was less than 100 nM.

Regarding `C[C@@H](Nc1nc(N2CCN(C(=O)[C@H]3C[C@@H](F)CN3)CC2)ncc1Cl)c1ccc(Cl)cc1Cl` [Example 1.140], the IC50 was less than 100 nM.

As to `C[C@@H](Nc1nc(N2CCN(C(=O)[C@H]3CN(C)C(=O)N3)CC2)ncc1Cl)c1ccc(Cl)cc1Cl` [Example 1.227], the IC50 is less than 100 nM.

`C[C@@H](Nc1nc(N2CCN(C(=O)[C@H]3CC(=O)N3)CC2)ncc1Cl)c1ccc(Cl)cc1Cl` [Example 1.232]: the IC50 lay in the range of 100 to 1000 nM.

As to `Cc1cc(Cl)ccc1[C@@H](C)Nc1nc(N2CCN(C(=O)[C@H]3CCC(=O)N3)CC2)ncc1F` [Example 1.089], the IC50 was 100 to 1000 nM.

On to `C[C@@H](Nc1nc(N2CCN(C(=O)[C@H]3CCC(=O)N3)[C@@H](CO)C2)ncc1Cl)c1ccc(Cl)cc1Cl` [Example 1.111], for which the IC50 was less than 100 nM.

`COCc1cnc(N2CCN(C(=O)[C@H]3CCC(=O)N3)CC2)nc1N[C@H](C)c1ccc(Cl)cc1Cl` [Example 1.102]: the IC50 was less than 100 nM.

For `COc1cnc(N2CCN(C(=O)[C@H]3CCNC3)CC2)nc1N[C@H](C)c1ccc(Cl)cc1Cl` [Example 1.163], the “Serum IC50 (FBS)” value was “+ ++”.

Consider `C[C@@H](Nc1nc(N2CCC(C(=O)N[C@H]3CCNC3=O)CC2)ncc1Cl)c1ccc(Cl)cc1Cl` [Example 1.233], for which the IC50 is greater than 1000 nM.

On to `C[C@@H](Nc1nc(N2CCN(C(=O)[C@H]3CCC(C)(C)N3)CC2)ncc1Cl)c1ccc(Cl)cc1Cl` [Example 1.225], for which the IC50 was less than 100 nM.

Regarding `C[C@@H](Nc1nc(N2CCN(C(=O)[C@H]3CCC(=O)N3)CC2)ncc1OCC(F)(F)F)c1ccc(Cl)cc1Cl` [Example 1.099], the IC50 was 100 to 1000 nM.

As for `COc1cnc(N2CC[C@H](NC(=O)[C@H]3CCCN3)[C@@H](O)C2)nc1N[C@H](C)c1ccc(Cl)cc1Cl` [Example 1.179], the IC50 is less than 100 nM.

In the case of `C[C@@H](Nc1nc(N2CC[C@H](NC(=O)[C@H]3CCCN3)[C@H](O)C2)ncc1OC(F)F)c1ccc(Cl)cc1Cl` [Example 1.120], the 50% inhibitory concentration (IC50) was less than 100 nM.

`C[C@@H](Nc1nc(N2CCN(C(=O)[C@H]3CCCN3)CC2)ncc1C1CC1)c1ccc(Cl)cc1Cl` [Example 1.114]: the IC50 is less than 100 nM.

Turning to `C[C@@H](Nc1nc(N2CCC(NC(=O)[C@H]3CN(C)C(=O)N3)CC2)ncc1Cl)c1ccc(Cl)cc1Cl` [Example 1.223], the IC50 is greater than 1000 nM.

For the molecule `C[C@@H]1CN(c2ncc(Cl)c(N[C@H](C)c3ccc(Cl)cc3Cl)n2)CCN1C(=O)[C@H]1CCC(=O)N1` [Example 1.112], the IC50 is less than 100 nM.

For the molecule `Cc1cc(Cl)ccc1[C@@H](C)Nc1nc(N2CCN(C(=O)[C@H]3CCC(=O)N3)CC2)ncc1Cl` [Example 1.088], the IC50 fell in the range of 100 to 1000 nM.

`CCOc1cnc(N2CCN(C(=O)[C@H]3CCC(=O)N3)CC2)nc1N[C@H](C)c1ccc(Cl)cc1Cl` [Example 1.182]: the IC50 is less than 100 nM.

For `C[C@@H](Nc1ccnc(N2CCN(C(=O)[C@H]3CCCN3)CC2)n1)c1ccc(Cl)cc1Cl` [Example 1.115], the IC50 is less than 100 nM.

For the molecule `COc1cnc(N2CCN(C(=O)CCN(C)C)CC2)nc1N[C@H](C)c1ccc(Cl)cc1Cl` [Example 1.187], the IC50 is less than 100 nM.

Regarding `C[C@@H](Nc1nc(N2CCN(C(=O)[C@H]3CCN(C)C3)CC2)ncc1C(N)=O)c1ccc(Cl)cc1Cl` [Example 1.236], the IC50 is less than 100 nM.
